Assay results as given in the CheMixHub ionic liquid set.
± gives the uncertainty stated by the source.

Assay: xn = mol fraction of the nth substance listed

CCCC[n+]1ccn(C)c1.O=S(=O)([N-]S(=O)(=O)C(F)(F)F)C(F)(F)F + CC(=O)[O-].CCCC[NH2+]CCO
101 kPa, x2 = 0
Details	viscosity [mPa·s]
278.15 K	145.6 ± 2.3
288.15 K	83.44 ± 0.91
293.15 K	65.11 ± 0.61
318.15 K	24.05 ± 0.22

CCCC[n+]1ccn(C)c1.O=S(=O)([N-]S(=O)(=O)C(F)(F)F)C(F)(F)F + CC(=O)[O-].CCCC[n+]1ccn(C)c1
101 kPa
Details	electrical conductivity, 313.15 K [S/m]	viscosity, 298.15 K [mPa·s]	viscosity, 313.15 K [mPa·s]	viscosity, 353.15 K [mPa·s]
x1 = 1	0.683 ± 0.027	–	28.5 ± 2.9	–
x2 = 0	–	50.3 ± 2.1	–	9.52 ± 0.4

CC1CNCCN1 (stereo unspecified) + CC(=O)[O-].CCCC[n+]1ccn(C)c1 + O
viscosity [mPa·s], 100 kPa
Details	298.15 K	303.15 K	308.15 K	313.15 K	318.15 K	323.15 K	328.15 K	333.15 K
x2 = 0.04327, x1 = 0.02647	3.46 ± 0.05	3.23 ± 0.05	2.82 ± 0.04	2.64 ± 0.04	2.39 ± 0.04	1.91 ± 0.03	1.31 ± 0.02	1.16 ± 0.02
x2 = 0.05132, x1 = 0.01784	3.58 ± 0.08	3.38 ± 0.07	3.16 ± 0.06	3.02 ± 0.05	2.84 ± 0.05	2.52 ± 0.09	2.47 ± 0.14	1.83 ± 0.09
x2 = 0.05944, x1 = 0.009089	4.03 ± 0.06	3.78 ± 0.06	3.72 ± 0.06	3.24 ± 0.05	3.11 ± 0.05	2.89 ± 0.04	2.54 ± 0.04	2.03 ± 0.03

Nc1ncnc2[nH]cnc12 + CC(=O)[O-].CC[n+]1ccn(C)c1
Details	viscosity [mPa·s]
298.15 K, 100 kPa, x1 = 0.2012	960

CCCC[n+]1ccn(C)c1.F[P-](F)(F)(F)(F)F + CC(=O)c1ccccc1
Details	viscosity [mPa·s]
313.15 K, 100 kPa, x2 = 0	97 ± 19

CCCC[n+]1ccn(C)c1.F[P-](F)(F)(F)(F)F + CC(C)=O
Details	electrical conductivity [S/m]	viscosity [mPa·s]
296.15 K, 101 kPa, x2 = 0	0.15 ± 0.02	–
296.15 K, 101 kPa, x2 = 0.9195	3.84 ± 0.38	–
298.15 K, 101 kPa, x2 = 0.4972	1.28 ± 0.15	14.7 ± 1.6
298.15 K, 101 kPa, x2 = 0.7839	2.86 ± 0.34	2.05 ± 0.28
298.15 K, 101.3 kPa, x2 = 0.4485	–	18.46 ± 0.49
298.15 K, 101.3 kPa, x2 = 0.6007	–	6.96 ± 0.17
298.15 K, 101.3 kPa, x2 = 0.8058	–	1.648 ± 0.042

CCCCCC[N+](CC)(CC)CC.O=S(=O)([N-]S(=O)(=O)C(F)(F)F)C(F)(F)F + CC(C)O
100 kPa
Details	viscosity [mPa·s]
293.15 K, x2 = 0.096	160 ± 16
298.15 K, x2 = 0.2045	95.8 ± 9.7
298.15 K, x2 = 0.3101	68.4 ± 6.9
298.15 K, x2 = 0.4987	35.9 ± 3.6
303.15 K, x2 = 0.3101	61.4 ± 6.2
308.15 K, x2 = 0.4056	35.1 ± 3.5
308.15 K, x2 = 0.4987	25.5 ± 2.6
308.15 K, x2 = 0.5916	18 ± 1.8
308.15 K, x2 = 0.8015	5.65 ± 0.57
308.15 K, x2 = 0.9193	2.98 ± 0.3
313.15 K, x2 = 0.096	69.9 ± 7
313.15 K, x2 = 0.5916	16 ± 1.6

CCCC[n+]1cccc(C)c1.O=S(=O)([N-]S(=O)(=O)C(F)(F)F)C(F)(F)F + CC(C)O
Details	electrical conductivity [S/m]
298.15 K, 101.3 kPa, x2 = 0.3381	0.642 ± 0.013
